Patent US20080153791A1, “11Beta -Hydroxysteroid Dehydrogenases” (onpharm GmbH, priority 2005, published 2008)
Like-named read-outs stand apart in the source and are kept apart here.

Experiments:
human 11β-HSD1 [1] = molecular target: T1, human 11β-HSD1 (Homo sapiens, UniProt P28845); experiment: 11β-HSD1 reductase activity (cortisone to cortisol) in lysates of stably transfected HEK-293 cells; assay type: biochemical; conditions: for remaining activity at 20 µM: 20 μM compound, 100 nM cortisone, HEK-293 cell lysates, read-out: 11β-HSD1 % of control
T1 construct: expressed in transfected cells
Description: (§1) Cells were grown in 10 cm dishes to 80% confluence and incubated for 16 h in steroid-free medium (charcoal-treated fetal calf serum (FCS) from HyClone, Logan, Utah). Cells were rinsed once with phosphate-buffered saline (PBS), detached and centrifuged for 3 min at 150×g. The supernatant was removed and the cell pellet quick-frozen in a dry-ice ethanol bath. At the day of experiment, cell pellets were resuspended in buffer TS2 (100 mM NaCl, 1 mM EGTA, 1 mM EDTA, 1 mM MgCl2, 250 mM sucrose, 20 mM Tris-HCl, pH 7.4), sonicated and activities determined immediately. The rate of conversion of cortisol to cortisone or the reverse reaction was determined in 96-well optical PCR reaction plates (Applied Biosystems, Foster City, Calif.) in a final volume of 22 μl, and the tubes were capped during the reaction to avoid evaporation.
Reactions were initiated simultaneously by adding 10 μl of cell lysate and 12 μl of TS2 buffer containing the appropriate concentration of the inhibitory compound to be tested, NADPH, 30 nCi of [1,2,6,7-^3H]-cortisone and unlabeled cortisone, whereby final concentrations were 400 μM NADPH and 100 nM cortisone. Activities were determined immediately after cell disruption by measuring the conversion of radiolabeled cortisone to cortisol for 10 min.
(§2) Enzyme kinetics were analyzed by non-linear regression using Data Analysis Toolbox (MDL Information Systems Inc.) assuming first-order rate kinetics. Data represent mean ±SD of four to five independent experiments.
(§3) Assay with 20 μM of the corresponding compound in the reaction mixture, added simultaneously with the substrate:
(§4) Determination of IC50 values, using 7 different inhibitor concentrations at factor 2 intervals: […]

human 11β-HSD2 [2] = molecular target: T2, human 11β-HSD2 (Homo sapiens, UniProt P80365); experiment: 11β-HSD2 oxidase activity (cortisol to cortisone) in lysates of stably transfected HEK-293 cells; assay type: biochemical; conditions: for remaining activity at 20 µM: 20 μM compound, 25 nM cortisol, HEK-293 cell lysates, read-out: 11β-HSD2 % of control; for IC50: cell lysates, 7 inhibitor concentrations at factor 2 intervals
T2 construct: expressed in transfected cells
T2 sequence (P80365 1-405): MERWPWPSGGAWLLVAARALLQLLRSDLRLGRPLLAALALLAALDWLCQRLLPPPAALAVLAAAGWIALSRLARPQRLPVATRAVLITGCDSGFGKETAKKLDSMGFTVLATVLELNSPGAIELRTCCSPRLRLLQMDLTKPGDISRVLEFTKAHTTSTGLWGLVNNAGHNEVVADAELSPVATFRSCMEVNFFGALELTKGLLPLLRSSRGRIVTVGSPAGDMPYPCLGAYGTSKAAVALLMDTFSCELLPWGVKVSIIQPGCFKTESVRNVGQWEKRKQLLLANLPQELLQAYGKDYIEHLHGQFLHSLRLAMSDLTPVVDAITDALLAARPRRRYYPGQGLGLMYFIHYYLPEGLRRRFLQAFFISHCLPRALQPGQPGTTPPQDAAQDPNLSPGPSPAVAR
Description: as §1
Reactions were initiated by simultaneously adding 10 μl of cell lysate and 12 μl of TS2 buffer containing the appropriate concentration of the inhibitory compound to be tested, NAD^+, 30 nCi of [1,2,6,7-^3H]-cortisol and unlabeled cortisol. […] Stock solutions of the inhibitors in methanol or DMSO were diluted in TS2 buffer to yield the appropriate concentrations, whereby the concentration of methanol or DMSO in the reactions were kept below 0.1%. Control reactions with or without 0.1% of the solvent were performed. Incubation was at 37° C. for 10 min with shaking, reactions were terminated by adding 10 μl of stop solution containing 2 mM of unlabeled cortisol and cortisone dissolved in methanol. The conversion of radiolabeled cortisol was determined by separation of cortisol and cortisone using TLC and a solvent system of 9:1 (v/v) chloroform:methanol, followed by scintillation counting.
as §2, §3, §4

human 11β-HSD1 [3] = molecular target: T1, human 11β-HSD1; experiment: 11β-HSD1 activity in intact transfected HEK-293 cells; assay type: cell-based
Description: (§5) Human 11β-HSD1 and 11β-HSD2 activities were assessed in intact stably transfected HEK-293 cells. Per well of a 96-well plate 30,000 cells were seeded, followed by growth for 24 h in steroid-free DMEM medium. The total volume was 30 μl and contained 100 nM of radiolabeled cortisol or cortisone as substrate and the corresponding inhibitor at a final concentration between 0-200 μM. The reaction was performed in steroid-free medium in the absence of exogenous cofactor for 1 to 3 h at 37° C. The solvent was below 0.1% (DMSO). Reactions were stopped by adding unlabeled cortisol and cortisone dissolved in methanol (2 mM final). Steroids were separated by TLC and conversion determined by scintillation counting.
as §2

17β-HSD1 = molecular target: T3, 17β-HSD1 (Homo sapiens, UniProt P14061); experiment: Inhibition of 17β-HSD1; assay type: biochemical
T3 sequence (P14061 1-328): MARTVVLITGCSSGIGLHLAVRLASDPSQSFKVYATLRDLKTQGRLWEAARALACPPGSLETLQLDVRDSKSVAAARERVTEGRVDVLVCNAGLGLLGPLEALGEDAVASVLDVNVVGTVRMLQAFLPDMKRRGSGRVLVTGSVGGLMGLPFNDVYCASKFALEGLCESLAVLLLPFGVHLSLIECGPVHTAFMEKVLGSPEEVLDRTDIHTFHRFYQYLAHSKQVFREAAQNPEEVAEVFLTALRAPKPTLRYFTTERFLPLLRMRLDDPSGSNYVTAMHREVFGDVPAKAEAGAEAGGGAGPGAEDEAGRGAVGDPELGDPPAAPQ

17β-HSD2 = molecular target: T4, 17β-HSD2 (Homo sapiens, UniProt P37059); experiment: Inhibition of 17β-HSD2; assay type: biochemical
T4 sequence (P37059 1-387): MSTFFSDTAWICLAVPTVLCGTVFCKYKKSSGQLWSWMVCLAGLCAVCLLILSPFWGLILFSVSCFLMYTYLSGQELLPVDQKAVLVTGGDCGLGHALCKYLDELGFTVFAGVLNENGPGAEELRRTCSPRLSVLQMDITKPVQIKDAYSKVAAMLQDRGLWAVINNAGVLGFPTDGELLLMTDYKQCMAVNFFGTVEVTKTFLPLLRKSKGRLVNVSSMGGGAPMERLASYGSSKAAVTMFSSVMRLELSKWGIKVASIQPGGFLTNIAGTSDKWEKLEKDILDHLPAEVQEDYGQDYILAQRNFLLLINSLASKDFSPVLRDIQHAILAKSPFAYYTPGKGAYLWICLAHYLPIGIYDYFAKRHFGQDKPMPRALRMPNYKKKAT

human 11β-HSD2 [4] = molecular target: T2, human 11β-HSD2; experiment: 11β-HSD2 activity in intact transfected HEK-293 cells; assay type: cell-based; conditions: read-out: IC50 for 11β-HSD2 (determined in intact transfected HEK-293 cells)
Description: as §5, §2

human 11β-HSD1 [5] = molecular target: T1, human 11β-HSD1; experiment: 11β-HSD1 reductase activity (cortisone to cortisol) in lysates of stably transfected HEK-293 cells; assay type: biochemical; conditions: read-out: 11β-HSD1 % of control

T1 sequence (P28845 whole entry): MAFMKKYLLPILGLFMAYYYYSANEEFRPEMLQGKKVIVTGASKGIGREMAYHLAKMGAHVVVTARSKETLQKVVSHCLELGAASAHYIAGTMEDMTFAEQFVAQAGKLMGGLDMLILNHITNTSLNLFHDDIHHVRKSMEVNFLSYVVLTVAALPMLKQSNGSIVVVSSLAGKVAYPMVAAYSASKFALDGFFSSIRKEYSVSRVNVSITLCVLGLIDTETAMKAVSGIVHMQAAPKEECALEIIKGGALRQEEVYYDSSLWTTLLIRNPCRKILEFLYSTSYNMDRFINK

## COc1ccc(CCNC(=O)C23CCC(C)(C(=O)C2=O)C3(C)C)cc1OC (stereo not shown) [BNW7, 4,7,7-Trimethyl-2,3-dioxo-bicyclo[2.2.1]heptane-1-carboxylic acid [2-(3,4-dimethoxy-phenyl)-ethyl]-amide]
Human 11β-HSD1 [1]
  remaining activity at 20 µM: 9.6%
Human 11β-HSD1 [1]; cell lysates, 7 inhibitor concentrations at factor 2 intervals, experiment 1, read-out: IC 50 11β-HSD1, determination 1
  IC50: 1950 nM
Human 11β-HSD1 [1]; cell lysates, 7 inhibitor concentrations at factor 2 intervals, experiment 2, read-out: IC 50 11β-HSD1, determination 2
  IC50: 1910 nM
Human 11β-HSD1 [1]; cell lysates, 7 inhibitor concentrations at factor 2 intervals, experiment 3, read-out: IC 50 11β-HSD1, determination 3
  IC50: 2240 nM
Human 11β-HSD2 [2]
  inhibition of 11β-HSD2 (in words): did not inhibit
  remaining activity at 20 µM: 140%
Human 11β-HSD2 [2]; listed as 7
  inhibition of 11β-HSD2 (in words): no inhibition
Human 11β-HSD1 [3]; 11β-HSD1, intact HEK-293 cells, mean ± SD, read-out: IC50 in intact cells
  IC50: 550 ± 50 nM
17β-HSD1
  inhibition of 17β-HSD1 (in words): did not inhibit
17β-HSD1; listed as 7
  inhibition of 17β-HSD1 (in words): no inhibition
17β-HSD2
  inhibition of 17β-HSD2 (in words): did not inhibit
17β-HSD2; listed as 7
  inhibition of 17β-HSD2 (in words): no inhibition

## CC(=O)OC1CC[C@]2(C)C3=C(C(=O)C[C@H]2C1(C)C)[C@]1(C)CCC(C(C)CCC(=O)O)[C@@]1(C)CC3=O (stereo partly drawn) [BNW16, 4-((5R,10S,13R,14R)-3-Acetoxy-4,4,10,13,14-pentamethyl-7,11-dioxo-2,3,4,5,6,7,10,11,12,13,14,15,16,17-tetradecahydro-1H-cyclopenta[a]phenanthren-17-yl)-pentanoic acid]
Human 11β-HSD1 [1]
  remaining activity at 20 µM: 2.7%
Human 11β-HSD1 [1]; IC 50 11β-HSD1, determination 1
  IC50: 149 nM
Human 11β-HSD1 [1]; IC 50 11β-HSD1, determination 2
  IC50: 168 nM
Human 11β-HSD1 [1]; IC 50 11β-HSD1, determination 3
  IC50: 114 nM
Human 11β-HSD2 [2]
  inhibition of 11β-HSD2 (in words): no inhibition
  remaining activity at 20 µM: 27.4%
Human 11β-HSD2 [2]; experiment 2, read-out: IC 50 11β-HSD2, determination 2
  IC50: 4040 nM
Human 11β-HSD2 [2]; experiment 3, read-out: IC 50 11β-HSD2, determination 3
  IC50: 3870 nM
Human 11β-HSD1 [3]
  IC50: 2320 ± 330 nM
Human 11β-HSD1 [3]; text b14, read-out: IC50 for 11β-HSD1 determined in intact transfected HEK-293 cells
  IC50: 410 ± 80 nM
Human 11β-HSD2 [4]
  IC50: > 50000 nM
17β-HSD1
  IC50: > 30000 nM
  inhibition of 17β-HSD1 (in words): no inhibition
17β-HSD2
  IC50: 28300 ± 5500 nM
  inhibition of 17β-HSD2 (in words): no inhibition

## CC1(C)[C@@H](OC(=O)CCC(=O)O)CC[C@]2(C)[C@H]3C(=O)C=C4[C@@H]5C[C@@](C)(C(=O)O)CC[C@]5(C)CC[C@@]4(C)[C@]3(C)CC[C@@H]12 [CBX, carbenoxolone]
Human 11β-HSD1 [5]
  remaining activity at 10 µM: 4.4%
